Measurements from ChEMBL document CHEMBL3507680, “University of Dundee, Gates Library screen for HepG2 cell viability”.

Test: Human HepG2 cell viability assay in 384 well format
Format: toxicity, cell-based
Set-up: dose 125 nL, time 70.5 hour; concentration not given beside the values
Settings: HepG2 cells, read-out: Inhibition

Structure (SMILES) | cytotoxicity at 70.5 h [%]
CCn1c(C2CCN(C(=O)c3cc(CC(C)C)on3)CC2)nn(C)c1=O | 6.02
Cc1cc(C(=O)NCc2csc(N(C)C)n2)c2ccc(C)c(C)c2n1 | 0.264
CCCc1nnc2sc(CC3CN(Cc4ccccc4)CCO3)nn12 (stereo not drawn) | -8.68
COc1ccccc1-c1ccc(C(=O)N2C[C@H]3CC[C@@H]2CN(C)C3)cc1 | -8.1
CSCCN1CCC(NC(=O)c2cccc(C3CCCNC3)c2)CC1 (stereo not drawn) | -24.6
COCCn1c(=O)n(Cc2ccccc2C)c2cc(C(=O)O)ccc21 | -7.93
Cc1ccsc1CN(C)CCc1scnc1C | 14.4
CN(C)C(C(=O)N1CCC(C#N)CC1)c1ccccc1F (stereo not drawn) | -5.19
O=c1cc(-c2cccnc2)nc(-c2ccc(CN3CC[C@H](O)C3)cc2)[nH]1 | 9.56
c1cc2c(cc1OC[C@@H]1CCCN3CCCC[C@H]13)OCCO2 | 3.85
COc1ccc(-c2noc(Cn3cc(C)cn3)n2)c(OC)c1OC | -1.78
COc1c(F)cccc1C(=O)NC(C)c1cnn(C)c1 (stereo not drawn) | -8.49
O=C(c1cnccn1)N1CCCC(Cn2cc(C3CCCC3)nn2)C1 (stereo not drawn) | -10.8
CCn1ccnc1CN1CCCN(CC2CC2)C(C(C)C)C1 (stereo not drawn) | -5.83
CN(Cc1nncn1C)C(=O)c1cc(COc2ccccc2F)[nH]n1 | -11.1
CN1CCCCC1CCC(=O)NCCCn1ncc2ccccc21 (stereo not drawn) | -3.92
CCC(CNc1ncnc2oc(C)nc12)Cc1ccccc1 (stereo not drawn) | -1.88
O=S(=O)(N[C@H]1CC[C@H]1NC1Cc2ccccc2C1)c1cccnc1 | -6.2
CCn1c(C)cc(C(=O)N2C[C@@H](C(=O)O)[C@H](c3ccccc3)C2)c1C | -2.74
CC(=O)N1CCCn2nc(CNc3cc(C)ncn3)cc2C1 | 15
OC1(CNCCN2CCc3ccccc32)CNCCOC1 (stereo not drawn) | -11
Cn1cccc1C(=O)N1CC[C@@]2(O)CCN(S(C)(=O)=O)C[C@H]2C1 | -6.36
CN(C)S(=O)(=O)N1C[C@@H]2CC[C@H](C1)N(C/C=C/c1ccc(F)cc1)C2 | 0.852

Structure (SMILES) | cytotoxicity at 70.5 h [%]
COc1ccc(CN2CCC(CO)(Cc3ccc(Cl)cc3)CC2)c(O)c1 | -11.2
O=C(c1cccc(-n2cccn2)c1)N1CCOC(CCO)C1 (stereo not drawn) | 1.32
Cc1nsc(NC(=O)NC2CCCN(C)C2)n1 (stereo not drawn) | 29.6
N#Cc1ccnc(N2CCC(NCCN3CCOCC3)CC2)c1 | -2.14
O=C(NCCN1CCCC1)Nc1cc(C(=O)N2CCOCC2)ccc1Cl | -8.22
COc1cc(C2CC(=O)NCc3nc4sccn4c32)cc(OC)c1O (stereo not drawn) | -13.6
COc1cccc(CC2CN(C(=O)c3ccnn3C)CCO2)c1 (stereo not drawn) | -4.96
O=c1n(Cc2ncccn2)nc(C2CCNCC2)n1-c1ccccc1 | -2.01
O=C(NC1CC1)c1ccnc(-c2cc(NCCO)nc3[nH]ccc23)c1 | 21.9
OC1CN(Cc2cccc(N3CCOCC3)c2)Cc2ccccc21 (stereo not drawn) | -0.922
CC(C)NCC1(O)CCCN(CCC2CCCCC2)C1=O (stereo not drawn) | -7.37
CCOCCN1CCN([C@@H]2c3ccccc3C3(CCNCC3)[C@H]2O)CC1 | 28.9
O=C1OCCN1C1CCN(Cc2cc3n(n2)CCCNC3)CC1 | 17.1
COc1ccc(C)cc1-n1cnnc1CC1CCNCC1 | -3.84
COCCNc1cc(-c2ccccc2C(=O)O)c2cc[nH]c2n1 | -10.4
Cc1cc(CN2CCC(CNC(=O)c3ccc4[nH]cnc4c3)C2)[nH]n1 (stereo not drawn) | -6.71
COC(=O)[C@H]1C[C@@H](O)CCN1S(=O)(=O)c1cc(C)c(Cl)cc1C | 0.229
O=C(O)[C@@H]1CN(C2CCOCC2)C[C@H]1C1CC1 | -7.25
CSCCC1c2nc[nH]c2CCN1Cc1ccccc1C(F)(F)F (stereo not drawn) | 0.321
CN(CC(C)(C)C)c1ccc(C(=O)NCCCc2ccccn2)cn1 | -8.74
Nc1nc2c(c(NCc3cnc4c(c3)CCC4)n1)CCNC2 | -10.4
CN1CCCC(c2nc3c([nH]2)CC(C)(C)CNC3=O)C1 (stereo not drawn) | 13.5
CNc1ccnc(N2C[C@@H](C)[C@](O)(C3CCC3)C2)n1 | 26

Structure (SMILES) | cytotoxicity at 70.5 h [%]
Cc1cc(-c2cc(C3CCOC3)c(C#N)c(N)n2)ccc1Cl (stereo not drawn) | -10.8
Cc1nnnn1CCC(=O)N1CCC2(CCC(=O)N(CC3CC3)C2)CC1 | -8.64
CCc1oc(C(=O)NC(C)c2ncn[nH]2)cc1CN1CCCC1 (stereo not drawn) | -10.5
COc1ccc(F)c(CN2CCCC(O)(CNC3CCCCC3)C2=O)c1 (stereo not drawn) | -2.81
Cn1cnnc1CCC(=O)N1CCCC(OCc2cccnc2)C1 (stereo not drawn) | -0.989
CC(C)OCCCNC(=O)C1CCC(=O)N(C2CCCC2)C1 (stereo not drawn) | 17.3
O=C1OCCN1CCNC(=O)C1(N2CCCCC2)Cc2ccccc2C1 | -7.56
CCc1cc(N(C)CCC(O)c2ccccc2)n2nccc2n1 (stereo not drawn) | 30.6
CCCn1ncc(C(=O)N(Cc2cccnc2)C[C@@H]2CCC(=O)N2)c1C | -5.8
CC(C)Cc1cc(C(=O)NC(C)(C)CN2CCCCCC2)on1 | -4.52
COc1cccc2c1OCC(C(=O)N1CCN(C3CCSCC3)CC1)C2 (stereo not drawn) | -7.23
CC(=O)c1ccc(CN2CCCC23CCN(c2ccccn2)CC3)cc1 | -25.1
CC(C)(O)CCc1ccc(C(=O)NCC2CCCOC2)cc1 (stereo not drawn) | -2.37
CN1CCN(c2cnn(Cc3ccc(S(C)(=O)=O)cc3)c(=O)c2)CC1 | -2.57
CCn1cc(CN2CCCC(COc3ccccc3F)C2)cn1 (stereo not drawn) | 10.5
O=C(N[C@H]1COC[C@@H]1N1CCCC1)c1c[nH]nc1C1CCCCC1 | -4.22
COc1ccc(F)cc1CN1CCC(O)(CN2CCCCC2)C1 (stereo not drawn) | -6.56
CCOc1ccc(C(=O)CCC(=O)N(C)Cc2snnc2C)cc1C | -7.49
CC(C)c1nc(C(=O)N2CCCC(N)CC2)cs1 (stereo not drawn) | 25.2
CC(c1cncs1)N(C)Cc1ccc(CCC(C)(C)O)cc1 (stereo not drawn) | -5.33
CCc1cc(CN(C)C(=O)CN2CC(c3ccccc3)CC2=O)on1 (stereo not drawn) | 3.32
O=C(CSCC1CC1)N1CCCC(c2nccn2Cc2ccccn2)C1 (stereo not drawn) | 0.457
CCN(Cc1ccncc1)C(=O)C(C)n1ccnc1C(C)C (stereo not drawn) | -11.1

Structure (SMILES) | cytotoxicity at 70.5 h [%]
COCCC1(CO)CCCN(Cc2ccncc2)C1 (stereo not drawn) | -3.98
CCN(Cc1ccncc1)c1cc(C2CCCNC2)nc(C)n1 (stereo not drawn) | -7.35
COCCN(C)C[C@@H]1CN(C(=O)NC2CCCCC2)C[C@@H]1CO | -8.61
Cc1cc(C(=O)N2CCNC(c3ccccc3)C2)c2ccc(F)cc2n1 (stereo not drawn) | -4.04
CC(C)n1cnnc1CN(C)CC1CCOC1 (stereo not drawn) | -11.8
O=C1OCCN1Cc1ccc(C(F)(F)F)cc1F | -6.21
CN(Cc1noc2c1CCCC2)C(=O)C1Cc2ccccc2CN1C (stereo not drawn) | -6.59
Cc1ccccc1C1CCN(CCn2cc(-c3nccn3C)nn2)C1 (stereo not drawn) | 2.36
Cc1nc(NC(=O)N(C)Cc2ccoc2)nn1C | -4.45
OC1COCCN(Cc2cccc(N3CCOCC3)c2)C1 (stereo not drawn) | -5.01
CCOCCn1c(=O)[nH]c2cc(C(=O)N(C)Cc3cc(C)[nH]n3)ccc21 | -6.23
OCc1ccc(CN2CCC(n3cc(C4CCCCC4)nn3)CC2)o1 | -7.14
O=C1CC[C@@H](C(=O)N2CCC(Cn3cc(C4CCCCC4)nn3)CC2)N1 | -1.59
CC(=O)NCCC1CCN(c2nc(C(C)(C)C)nc3c2cnn3C)CC1 | -1.1
COc1ccc(F)c(F)c1C(=O)N1C[C@@H](CN(C)CCO)[C@@H](CO)C1 | 17
OCCc1ncnn1Cc1cccc(Cl)c1 | 44.4
O=C(NCCN1CCCC(CO)C1)c1ccc2scnc2c1 (stereo not drawn) | -13.1
O=C(CCC1CCN(C2CSCCSC2)CC1)NCC1CCCO1 (stereo not drawn) | -7.42
COc1ccccc1[C@@H]1CN(Cc2cnn(C)c2C)C[C@H]1C(=O)O | 7.39
Cc1nc(CN(C)C)cc(N2CCCC(COc3ccc(F)cc3)C2)n1 (stereo not drawn) | -5.18
CCC(C(=O)NC(C)(C)C)n1ccc2ncccc2c1=O (stereo not drawn) | -17.5
COCc1nnc(C(=O)N(C)Cc2ccc(OC)cc2)o1 | -0.9
Cc1cnn(CCC(=O)N2CCC3(CCC(=O)N(CC4CC4)C3)CC2)c1 | -6.95

Structure (SMILES) | cytotoxicity at 70.5 h [%]
CN(CCCc1cnn(C)c1)Cc1cc2n(n1)CCNC2 | -4.75
CC(c1cccnc1)N(C)Cc1cc2cc3c(cc2[nH]c1=O)OCO3 (stereo not drawn) | 2.59
COc1cccn(CC(=O)N2CCC3(CCNCC3)C2)c1=O | -13.1
Cc1cc2[nH]c(CN3CCOC(Cc4ccccc4)C3)cc(=O)n2n1 (stereo not drawn) | 18.7
COCCCN1CC2(CCCN(CCn3cc(Cl)cn3)C2)CCC1=O (stereo not drawn) | -21.9
Cn1ccnc1C(=O)N1CCCC1c1ccc(C(=O)N2CCOCC2)s1 (stereo not drawn) | -2.53
Cc1c[nH]c(CN2CCOC(c3ccc(Cl)cc3)C2)c(C)c1=O (stereo not drawn) | -4.57
CCCc1cncnc1N1CCC2(CCC(=O)N(C3CCCC3)C2)CC1 | -12.7
CN(c1ncccc1CNC(=O)c1csnn1)C1CCCCC1 | 26.5
CN(Cc1ccccc1CN1CCCC1)C(=O)c1c[nH]c(=O)[nH]1 | -10.8
CC1(C(=O)NCc2cccnc2Oc2ccc(F)cc2F)CCCNC1 (stereo not drawn) | -18.2
Cc1c(C2CCOC(C)(C)C2)nc(N)c(C#N)c1-c1ccc(O)cc1 (stereo not drawn) | 11.3
CNC(=O)[C@@H]1C[C@H](N)CN1S(=O)(=O)c1cc(C)c(Cl)cc1C | 1.05
O=C(c1c[nH]nc1-c1cccc(F)c1)N1CCNC(c2ccccc2)C1 (stereo not drawn) | -9.77
COc1cccc(C)c1C(=O)N1CCc2ncnc(NCCO)c2CC1 | -7.07
COc1ccc(-c2nc3c([nH]2)CCNC3C(=O)O)c2ccccc12 (stereo not drawn) | -7.46
CN(CCCOc1ccccc1Cl)C(=O)CN1CCNC1=O | -1.34
COc1cc(CN(C)C(C)c2ccccn2)cc2c1OCO2 (stereo not drawn) | -13.1
O=C(NC1CC(=O)N(C2Cc3ccccc3C2)C1)c1cnccn1 (stereo not drawn) | -4.83
CC(=O)NC1CCN(c2cc(-c3ccccc3)nc3c(C)c(C)nn23)C1 (stereo not drawn) | -2.22
CCCOC1CCCN(C(=O)c2cc(CN(CC)CC)c(CC)o2)C1 (stereo not drawn) | 17.7
